Here are results for one compound from patent US20240109855A1, “ANTI-QUORUM SENSING, ANTI-BIOFILM, AND INFLAMMATION ATTENUATING COMPOUNDS, COMPOSITIONS, AND METHODS OF USING SAME” (priority 2021, published 2024).

“Also recorded” adds a separate entry of the source.

Assay [1] relates to Chromobacterium violaceum (CV026). The assay is described as follows: Quorum sensing inhibition test with bio-reporter CV026 (TLC overlay). On Degree of quorum sensing inhibition (QSI), CV026: key: −: no inhibition; +: low inhibition; ++: medium inhibition; +++: strong inhibition. In kind it is cell-based. The gist of the method:
(§1)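 Compounds (40 mM in acetonitrile, 20 μl) were spotted on TLC and overlaid with soft agar reporter cultures, incubated overnight at 30 °C. CV026 was in LB with 500 nM 3-oxo-C6 (purple pigment), and KYC55 was in AT medium with 5 nM 3-oxo-C8 and 60 μg/ml X-gal (blue). Inhibition zone diameter was measured.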

The test system of assay [2] is Agrobacterium tumefaciens (KYC55). Kind of assay: Quorum sensing inhibition test with bio-reporter KYC55 (TLC overlay). On Degree of quorum sensing inhibition (QSI), KYC55: key: −: no inhibition; +: low inhibition; ++: medium inhibition; +++: strong inhibition. Type of assay: cell-based. The gist of the method:
as §1

Assay [3] deals with gram-positive and gram-negative bacteria. The assay is described as follows: Antibacterial activity, overall statement (diffusion discs test). Further: key: +: active; −: inactive. In kind it is cell-based. The settings on record: Table 6 summary. The gist of the method:
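Compounds in acetonitrile at 40 mM, 20 μl dried onto filter paper discs, laid on lawns of B. subtilis, S. aureus, A. baumannii (LB agar) or S. sobrinus, S. mutans (BHI agar) from overnight cultures. Incubated overnight at 37° C; inhibition zone diameter measured.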

A further assay has as its system rhlR-rhlI system. The assay is described as follows: Bioluminescence QS reporter bacteria, rhlRI. The settings on record: Pseudomonas aeruginosa. Type of assay: cell-based, P. aeruginosa. On the procedure: (§2) FIGS. 13A-13C include vertical bar graphs showing the dose response inhibition of QS by PL-18. Bioluminescence indicator bacteria containing the P. aeruginosa reporter genes rhlRI (13A) and lasRI (13B) were used. The reporter bacteria were incubated with and range of PL-18 concentrations or DMSO, together with (+AI) or without (−AI) the proper auto-inducer. Bioluminescence was recorded at 15 min intervals for 10 hrs at 37° C. The maximum signal in each group was normalized to the inducer's bioluminescence maximum signal with 0.5% DMSO. Mean±SD, One-way ANOVA followed by Dunett's multiple comparisons test was performed (p-value ***≤0.0002). N=9 (triplicate samples in three independent experiments). (13C) RT-qPCR of P. aeruginosa (PA01) QS genes. PA01 was co-incubated with two doses of PL-18 for seven hours, lysed and total RNA was extracted and converted to cDNA followed by target genes qPCR amplification. N≥16, Mean±SD. Two-way ANOVA, 95% confidence interval.
(§3) The inhibition of rhlR-rhlI system was slightly better than the inhibition of lasR-lasI. […] The relative transcription levels of QS genes lasR, lasI, rhlR and rhlI, was determined by RT-qPCR.

Another assay relates to lasR-lasI. The assay is described as follows: Bioluminescence QS reporter bacteria, lasRI. Type of assay: cell-based, P. aeruginosa. The settings on record: Pseudomonas aeruginosa. On the procedure:
as §2, §3

Another assay has as its system pyocyanin. Kind of assay: Pyocyanin secretion by P. aeruginosa. In kind it is cell-based. The settings on record: cell-free culture medium, spectrometry. Here is the method: (§4) FIGS. 14A-14B include vertical bar graphs showing that PL-18 inhibition effects on secretion of virulence factors by P. aeruginosa. (14A) Pyocyanin was extracted in the chloroform-HCl method and measured in a plate-reader at 380 nm. (14B) Determination of rhamnolipids content was measured at 570 nm of the cell-free supernatant after adjustment to pH-2. All results were normalized and compere to the control group-DMSO 0.16%. Mean±SD, One-way ANOVA followed by Dunett's multiple comparisons test (p-values *≤0.0332, ***≤0.0002). N=9 (in three independent experiments).
(§5) To test whether PL-18 inhibits virulence effectors secreted by P. aeruginosa, the relative abundance of the virulence factors pyocyanin and rhamnolipids in the bacterial cell-free culture medium was determined by spectrometry.

The subject of another assay is rhamnolipids. The assay is described as follows: Rhamnolipids secretion by P. aeruginosa. In kind it is cell-based. The settings on record: cell-free culture medium, spectrometry. On the procedure: as §4, §5
A further assay has as its system P. aeruginosa. The assay is described as follows: Motility of P. aeruginosa. In kind it is cell-based. The settings on record: data not shown.
Setting [4] is: Table 2, piperlongumine derivatives.

Broadly, the IC50 is the concentration needed to halve the response being measured. A word on the inhibition: it is the drop in the measured response relative to a control, in per cent. For the compound `COc1cc(/C=C/C(=O)N2CCC=CC2=O)cc(O)c1O` [PL-18, Dihydroxy piperlongumine], the “Degree of quorum sensing inhibition (QSI), CV026” value in assay [1] (setting [4]) was “++”. In addition, the “QSI activity against CV026, in words” value in assay [1] (running text) was “moderate activity”. Also, the “Degree of quorum sensing inhibition (QSI), KYC55” value in assay [2] (setting [4]) is “+++”. The “QSI activity against KYC55, in words” value in assay [2] (running text) is listed as “strong quorum sensing inhibition”. Further, in assay [3], the Antibacterial result was “−”. For the same compound, the half-maximal inhibitory concentration (IC50) with rhlR-rhlI system (read-out: IC50, rhlR-rhlI) was 18 µM; with lasR-lasI (read-out: IC50, lasR-lasI), 22 µM. Further, the inhibition at 160 µM with rhlR-rhlI system (read-out: Inhibition of rhlR-rhlI) came out at 85.6%; with lasR-lasI (read-out: lasR-lasI inhibition) it was 76.8%. Moreover, the “Inhibition of pyocyanin secretion” value with pyocyanin was “inhibit both virulence factors in a dose dependent manner; also recorded: effectively attenuate”. In addition, the “Inhibition of rhamnolipids secretion” value with rhamnolipids is on record as “inhibit both virulence factors in a dose dependent manner; also recorded: effectively attenuate”. Also, the Inhibition of motility entry in the assay with P. aeruginosa is reported as “not shown to inhibit; also recorded: not found to inhibit”.
